Source: US8980926B2, “2-aminoindole compounds and methods for the treatment of malaria” (Genzyme Corporation, priority 2009, dated 2015)
Read-outs that look alike come from different tables or passages of the source.

Assays:
P. falciparum strain 3D7 = assay: In vitro potency against P. falciparum strain 3D7 (SYBR green/DAPI); assay type: cell-based; conditions: Plasmodium falciparum
[1] = system: Plasmodium falciparum strain Dd2; assay: In vitro potency against P. falciparum strain Dd2; assay type: cell-based; conditions: read-out: Potency (IC50; nM) Plasmodium spp. Pf Dd2
P. knowlesi strain H1 = assay: In vitro potency against P. knowlesi H1 in Rhesus blood cells (3H-hypoxanthine incorporation); assay type: cell-based; conditions: Plasmodium knowlesi, in Macaca mulatta, read-out: Potency (IC50; nM) Plasmodium spp. Pk H1
Protocol: Selected compounds were tested against P. knowlesi H1 strain parasites cultured in Rhesus blood cells as a surrogate for P. vivax infections using the method of Kocken and coworkers (Kocken, C. H., H. Ozwara, A. van der Wel, A. L. Beetsma, J. M. Mwenda, and A. W. Thomas. 2002. Plasmodium knowlesi provides a rapid in vitro and in vivo transfection system that enables double-crossover gene knockout studies. Infect Immun 70:655-660). Briefly, P. knowlesi were cultured in 2% Rhesus macaque erythrocytes (New England Primate Research Center) in RPMI culture media containing 10% Human O+ serum (Interstate Blood Bank). Schizont stage parasites were purified by floatation in 60% Percoll (GE life sciences) and allowed to reinvade to generate a synchronous population of ring stage parasites. Drug assays were performed by plating ring stage parasites at 0.5% parasitemia in triplicate, in RPMI containing 2.5 μg/ml hypoxanthine. Parasites were incubated for 24 hours with serially diluted test compounds. After 24 hours, thin smears were made to confirm that reinvasion had occurred, 0.5 μCi ^3H-labeled hypoxanthine (Perkin Elmer) were added to each well, and parasites were allowed to progress through S-phase to early schizonts. Cells were then harvested via glass filter plates and ^3H incorporation was measured by scintillation counting. Values were normalized to percentage of controls containing no drug, and IC50 values were generated (GraphPad Prism®).

P. berghei ANKA strain = assay: In vitro potency against P. berghei ANKA; assay type: cell-based; conditions: Plasmodium berghei, read-out: Potency (IC50; nM) Plasmodium spp. Pb ANKA
[2] = Mammalian cytotoxicity, dermal fibroblast; assay type: cell-based; conditions: human, normal human dermal fibroblasts (Clonetics #CC-2509); read-out: Selectivity, Mammalian cytotoxicity (IC50; μM) Dermal Fibroblast
[3] = Mammalian cytotoxicity, kidney epithelial; assay type: cell-based; conditions: normal human renal proximal tubule cells; read-out: Selectivity, Mammalian cytotoxicity (IC50; μM) Kidney epithelial
Erythrocyte lysis = assay type: cell-based; conditions: erythrocytes, read-out: Selectivity, Mammalian cytotoxicity (IC50; μM) Eryth. Lysis
hERG = target: T1, hERG (Homo sapiens, UniProt Q12809); assay: hERG in Chinese hamster ovary cells; assay type: cell-based
T1 construct: expressed in transfected cells; host or cells: Chinese hamster ovary cells (from the earlier reading's assay name)

P. berghei N-clone = assay: In vivo efficacy against P. berghei in mice (4-day suppressive test, oral); set-up: species or system P. berghei in Swiss Albino mice; conditions: for Average Day of Recrudescence: Study Day; for No. Cured: animals cured/group; for Recrudescence (no. animals/total): no parasites on Day 5 but later regressed; for % Suppression Day 5: vs untreated controls
From the text: Because of ethical issues and costs, the acute P. berghei model in rodents is considered the “gold standard” for assessing anti-malarial efficacy in animal models. This model is adapted from Peters' “4-day suppressive test” (Peters, W. 1987. Chemotherapy and Drug Resistance in Malaria, p. 102-115, 2ed, vol. 1. Academic Press, Orlando, Fla.; Peters, W. 1975. The chemotherapy of rodent malaria, XXII. The value of drug-resistant strains of P. berghei in screening for blood schizontocidal activity. Ann Trop Med Parasitol 69:155-171). All studies were conducted in accordance with the Guide for the Care and Use of Laboratory Animals (National-Research-Council. 1996. Guide for the Care and Use of Laboratory Animals. National Academy Press, Washington, D.C.) and the PHS guidelines. Animals were maintained according to NIH guidelines and were allowed to acclimatize for 1 week prior to the commencement of studies. On Day 0, groups of 4-6-week old female Swiss Albino mice (n=5) were infected by tail vein injection with 0.2 ml heparinized blood diluted to contain 1×10^7 N-clone parasites. The aminoindole analogs were formulated in 1.6% lactic acid mixed sodium salt, 1% Tween 80, 9% ethanol and 20% Cerestar (hydroxypropyl β-cyclodextrin; Wacker Chimie) and were administered by oral gavage. […] Animals in the Control-group received vehicle alone. Dose concentration and frequency of dosing were based upon preliminary tolerability/exposure studies. On Day 4 post-infection (5th day of assay) blood was collected by tail-nick, and thin smear microscope slides were prepared and stained using Diff Quick®. Parasitized erythrocytes were counted and compared with the total number of erythrocytes per microscopic field to determine the percent parasitemia. A minimum of 350 erythrocytes were counted. Animals showing no detectable parasites on Day 4 were examined every 2-3 days to determine whether cure was sterile. Animals with no detectable parasites 28 days after cessation of dosing (Study Day 33) were considered cured.

[4] = system: P. berghei ANKA strain GFP MRA-865; assay: In vivo efficacy against P. berghei ANKA GFP in the humanized murine system; set-up: species or system P. berghei in mice; conditions: b.i.d.
[5] = system: P. falciparum Pf3D7^0087/N9; assay: In vivo efficacy against P. falciparum in humanized mice; conditions: b.i.d.
Protocol: Briefly, groups of 3 animals were infected on Day 0 with 2×10^7 P. falciparum parasites and were treated orally once per day for 4 days with 5, 25 and 100 mg/kg/day formulated as described above beginning on Day 3 post infection. In parallel, groups of 3 animals were infected on Day 0 with 1×10^7 parasites on Day 0 and received the same doses beginning 1 hr after infection. Parasitemia was assessed by FACS as previously described (Jiménez-Díaz, M.-B., et al. 2009. Cytometry Part A 75:225-235. In the same humanized murine system, efficacy was also tested against P. berghei, with animals infected on Day 0 (Jimenez-Diaz, M. B., et al. 2005. Cytometry A 67:27-36). Results are shown in Table 5.

malaria = assay: In vivo efficacy in an animal (rodent) model of malaria (FIGS. 1, 2); conditions: FIG. 1
[6] = read-out: Potency (IC50; nM) Plasmodium spp. Pf 3D7
[7] = reductions in parasitemia, read-out: IC50 values

T1 sequence (Q12809 whole entry): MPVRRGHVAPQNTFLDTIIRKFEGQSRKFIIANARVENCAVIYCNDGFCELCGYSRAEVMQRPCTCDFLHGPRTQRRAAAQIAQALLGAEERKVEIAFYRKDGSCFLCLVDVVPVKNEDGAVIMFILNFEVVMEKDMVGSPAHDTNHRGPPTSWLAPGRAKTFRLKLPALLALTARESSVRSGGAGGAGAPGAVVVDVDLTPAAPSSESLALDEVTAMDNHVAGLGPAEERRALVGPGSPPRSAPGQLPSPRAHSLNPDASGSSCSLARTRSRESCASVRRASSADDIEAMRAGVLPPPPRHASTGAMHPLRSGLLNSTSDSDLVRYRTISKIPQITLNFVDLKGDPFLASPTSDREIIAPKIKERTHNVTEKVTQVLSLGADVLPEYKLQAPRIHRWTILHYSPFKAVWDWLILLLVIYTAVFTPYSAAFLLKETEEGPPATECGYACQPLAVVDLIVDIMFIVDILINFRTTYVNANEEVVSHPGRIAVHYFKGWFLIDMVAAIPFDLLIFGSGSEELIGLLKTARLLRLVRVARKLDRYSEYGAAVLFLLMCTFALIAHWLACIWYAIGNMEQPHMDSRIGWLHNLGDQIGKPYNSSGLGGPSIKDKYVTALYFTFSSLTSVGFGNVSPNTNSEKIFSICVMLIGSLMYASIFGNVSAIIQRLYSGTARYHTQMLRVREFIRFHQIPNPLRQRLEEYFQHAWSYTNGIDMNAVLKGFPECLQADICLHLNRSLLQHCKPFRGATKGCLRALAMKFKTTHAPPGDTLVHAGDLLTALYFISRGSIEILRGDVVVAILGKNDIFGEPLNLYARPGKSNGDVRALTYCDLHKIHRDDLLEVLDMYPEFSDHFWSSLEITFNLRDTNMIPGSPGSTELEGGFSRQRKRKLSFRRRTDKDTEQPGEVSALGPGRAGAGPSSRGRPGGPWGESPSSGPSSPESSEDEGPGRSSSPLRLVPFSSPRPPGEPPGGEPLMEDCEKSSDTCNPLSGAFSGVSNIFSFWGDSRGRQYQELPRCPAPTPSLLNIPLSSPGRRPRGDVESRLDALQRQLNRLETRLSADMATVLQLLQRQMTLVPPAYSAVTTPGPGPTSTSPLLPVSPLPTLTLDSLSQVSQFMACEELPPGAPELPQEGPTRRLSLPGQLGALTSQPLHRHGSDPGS

## CCOc1ccc(F)cc1[C@@]1(O)C(N)=Nc2ccc(Cl)cc21 (stereo in doubt) [Compound 267]
P. falciparum strain 3D7; [6]
  IC50: 28 nM
P. falciparum strain 3D7; [7]
  IC50: 1 to 100 nM
[1]
  IC50: 65 nM
P. knowlesi strain H1
  IC50: 26 nM
P. berghei ANKA strain
  IC50: 331 nM
[2]
  IC50: > 195 µM
[3]
  IC50: > 195 µM
Erythrocyte lysis
  IC50: > 125 µM
hERG
  Selectivity, hERG (μM) CHO: 36.6 µM
P. berghei N-clone; 100 mg/kg/day b.i.d. p.o.
  Average Day of Recrudescence: 14 days
  No. Cured: 0/5
  Recrudescence (no. animals/total): 2/4
  % Suppression Day 5: 95%
P. berghei N-clone; 200 mg/kg/day b.i.d. p.o.
  Average Day of Recrudescence: 12 days
  No. Cured: 3/5
  Recrudescence (no. animals/total): 2/5
  % Suppression Day 5: 100%
P. berghei N-clone; b.i.d.
  ED50 P. berghei N-clone: 32 mg/kg/day
  ED90 P. berghei N-clone: 68 mg/kg/day
P. berghei N-clone; doses of 100-200 mg/kg/day
  cures: able to affect cures
P. berghei N-clone; t.i.d.
  ED50 P. berghei N-clone: 35 mg/kg/day
  ED90 P. berghei N-clone: 58 mg/kg/day
[4]
  ED50 P. berghei ANKA strain GFP MRA-865: 19 mg/kg/day
  ED90 P. berghei ANKA strain GFP MRA-865: 30 mg/kg/day
[5]
  ED50 P. falciparum Pf3D7^0087/N9: 40 mg/kg/day
  ED90 P. falciparum Pf3D7^0087/N9: 74 mg/kg/day

## NC1=Nc2ccc(Cl)cc2C1(O)c1ccccc1 (centres unmarked) [Compound 1]
P. falciparum strain 3D7; [6]
  IC50: 200 nM
P. falciparum strain 3D7; [7]
  IC50: 100 to 500 nM
[1]
  IC50: 285 nM
P. knowlesi strain H1
  IC50: 336 nM
P. berghei ANKA strain
  IC50: 1560 nM
[2]
  IC50: > 242 µM
[3]
  IC50: > 242 µM
Erythrocyte lysis
  IC50: > 155 µM
hERG
  Selectivity, hERG (μM) CHO: >25 µM
P. berghei N-clone; 50 mg/kg/day b.i.d. p.o.
  Average Day of Recrudescence: 13 days
  No. Cured: 0/5
  Recrudescence (no. animals/total): 5/5
  % Suppression Day 5: 100%
malaria; 50 mg/kg dose, IP administration for four days
  in vivo efficacy (treatment of malaria): effectively treated malaria
malaria; IP administration for four days at various doses
  in vivo efficacy, dose dependence: dose-response relationship was observed
